Some results are limits rather than exact numbers.

For this assay, the target named is SARS-COV-2 3CLpro (having a P132H mutation, 3CLpro^P132H) (Severe acute respiratory syndrome coronavirus 2, UniProt P0DTD1, P3395H). Type of assay: biochemical.
On to `O=C(c1cc(=O)c2ccccc2o1)N1CCc2c([nH]c3ccccc23)C1c1ccccc1F` (stereo not shown) [E22, O=C(c1cc(=O)c2ccccc2o1)N1CCc2c([nH]c3ccccc23)C1c1ccccc1F], for which the “Inhibition Rate ([Cpd.]=40 uM)” value was under 0.5.

For `C/C(=N\Nc1nc2c(c(O)nc(=O)n2C)n1Cc1cccc2ccccc12)c1ccc(O)cc1` [D10, C/C(=N\Nc1nc2c(c(O)nc(=O)n2C)n1Cc1cccc2ccccc12)c1ccc(O)cc1], the “Inhibition Rate ([Cpd.]=40 uM)” value is reported as under 0.5.

As to `COc1cccc(-n2c(=O)c3c(C)c(C(=O)N(C)C)sc3n(Cc3cccc(F)c3)c2=O)c1` [E14, COc1cccc(-n2c(=O)c3c(C)c(C(=O)N(C)C)sc3n(Cc3cccc(F)c3)c2=O)c1], the “Inhibition Rate ([Cpd.]=40 uM)” value is on record as under 0.5.

Take `O=C(c1ccsc1)N1CCC[C@H](n2c(=O)n(Cc3cccc(F)c3)c3cccnc32)C1` [D8, O=C(c1ccsc1)N1CCC[C@H](n2c(=O)n(Cc3cccc(F)c3)c3cccnc32)C1]: the “Inhibition Rate ([Cpd.]=40 uM)” value is under 0.5.

For `CC(=O)N1C(C(=O)N(CCc2ccccc2)Cc2ccccc2)CSC1c1ccccc1O` (stereo not shown) [E7, CC(=O)N1C(C(=O)N(CCc2ccccc2)Cc2ccccc2)CSC1c1ccccc1O], the “Inhibition Rate ([Cpd.]=40 uM)” value is given as 0.63.

In the case of `C[C@@]1(O)C[C@H](O)CN(C(=O)[C@@H](N)Cc2ccc(O)cc2)C[C@H]1n1cnc2c(N)nc(N)nc21` [D20, C[C@@]1(O)C[C@H](O)CN(C(=O)[C@@H](N)Cc2ccc(O)cc2)C[C@H]1n1cnc2c(N)nc(N)nc21], the “Inhibition Rate ([Cpd.]=40 uM)” value was under 0.5.

Take `O=C1[C@@H]2Cc3c([nH]c4ccccc34)C(c3cccc([N+](=O)[O-])c3)N2C(=O)CN1CC(O)c1ccccc1` (stereo partly shown) [E21, O=C1[C@@H]2Cc3c([nH]c4ccccc34)C(c3cccc([N+](=O)[O-])c3)N2C(=O)CN1CC(O)c1ccccc1]: the “Inhibition Rate ([Cpd.]=40 uM)” value is under 0.5.

Regarding `O=C(Nc1ccccc1)N1CCCC(C(=O)N2CC(C(=O)N3CCCCC3)Oc3ccccc32)C1` (stereo not shown) [D19, O=C(Nc1ccccc1)N1CCCC(C(=O)N2CC(C(=O)N3CCCCC3)Oc3ccccc32)C1], the “Inhibition Rate ([Cpd.]=40 uM)” value was under 0.5.

Consider `Cc1cccc(Cn2c(=O)c(C(=O)NCc3ccco3)nn(-c3ccccc3F)c2=O)c1` [E8, Cc1cccc(Cn2c(=O)c(C(=O)NCc3ccco3)nn(-c3ccccc3F)c2=O)c1], for which the “Inhibition Rate ([Cpd.]=40 uM)” value is given as 0.66.

Turning to `CC(C)C(NC(=O)c1ccccc1Cl)C(=O)OCC(=O)Nc1cccc(S(N)(=O)=O)c1` (stereo not shown) [D6, CC(C)C(NC(=O)c1ccccc1Cl)C(=O)OCC(=O)Nc1cccc(S(N)(=O)=O)c1], the “Inhibition Rate ([Cpd.]=40 uM)” value is under 0.5.

For `O=CN1CCCN(C(=O)CC2C(=O)NCCN2Cc2cccc(Oc3ccccc3)c2)CC1` (stereo not shown) [D16, O=CN1CCCN(C(=O)CC2C(=O)NCCN2Cc2cccc(Oc3ccccc3)c2)CC1], the “Inhibition Rate ([Cpd.]=40 uM)” value is under 0.5.

In the case of `COc1ccc(Cn2cc(C(CC(=O)N3CCCC3)c3ccccc3F)c3ccccc32)cc1` (stereo not shown) [D4, COc1ccc(Cn2cc(C(CC(=O)N3CCCC3)c3ccccc3F)c3ccccc32)cc1], the “Inhibition Rate ([Cpd.]=40 uM)” value is on record as under 0.5.

In the case of `COc1cccc(CN(CCc2c[nH]c3ccccc23)C(=O)c2ccnn2C)c1` [E19, COc1cccc(CN(CCc2c[nH]c3ccccc23)C(=O)c2ccnn2C)c1], the “Inhibition Rate ([Cpd.]=40 uM)” value is under 0.5.

For `CC(=O)c1ccc(C(=O)N2CCc3c([nH]c4ccccc34)C2c2ccccc2F)s1` (stereo not shown) [E18, CC(=O)c1ccc(C(=O)N2CCc3c([nH]c4ccccc34)C2c2ccccc2F)s1], the “Inhibition Rate ([Cpd.]=40 uM)” value is recorded as under 0.5.

For the compound `Cn1c(NC(=O)c2cnn3c(C(F)(F)F)cc(-c4cccc5ccccc45)nc23)nc2ccccc21` [E1, Cn1c(NC(=O)c2cnn3c(C(F)(F)F)cc(-c4cccc5ccccc45)nc23)nc2ccccc21], the “Inhibition Rate ([Cpd.]=40 uM)” value came out at 0.82.

In the case of `Cc1ccc(N2C(=O)N(CC(=O)Nc3cccc(S(N)(=O)=O)c3)C(=O)C2C)cc1` (stereo not shown) [D11, Cc1ccc(N2C(=O)N(CC(=O)Nc3cccc(S(N)(=O)=O)c3)C(=O)C2C)cc1], the “Inhibition Rate ([Cpd.]=40 uM)” value was under 0.5.

Turning to `COCc1ccc(C(=O)N(Cc2ccccc2)Cc2nc3ccccc3c(=O)[nH]2)cc1` [E20, COCc1ccc(C(=O)N(Cc2ccccc2)Cc2nc3ccccc3c(=O)[nH]2)cc1], the “Inhibition Rate ([Cpd.]=40 uM)” value is reported as under 0.5.

For the compound `CC(C)[C@H](NS(=O)(=O)c1ccccc1F)C(=O)OCC(=O)Nc1cccc(S(N)(=O)=O)c1` [D13, CC(C)[C@H](NS(=O)(=O)c1ccccc1F)C(=O)OCC(=O)Nc1cccc(S(N)(=O)=O)c1], the “Inhibition Rate ([Cpd.]=40 uM)” value is reported as under 0.5.

For `Cc1c(C(=O)NCCC2=CCCCC2)sc2ncnc(N(C)c3ccccc3)c12` [D3, Cc1c(C(=O)NCCC2=CCCCC2)sc2ncnc(N(C)c3ccccc3)c12], the “Inhibition Rate ([Cpd.]=40 uM)” value amounted to 0.63.

Consider `COc1ccccc1-n1c(=O)c2c3c(sc2n(Cc2cccc(Cl)c2)c1=O)CN(C(C)=O)CC3` [D7, COc1ccccc1-n1c(=O)c2c3c(sc2n(Cc2cccc(Cl)c2)c1=O)CN(C(C)=O)CC3], for which the “Inhibition Rate ([Cpd.]=40 uM)” value is given as under 0.5.

Take `COCCn1/c(=N/C(=O)c2c(F)cccc2F)sc2cc(S(N)(=O)=O)ccc21` [D23, COCCn1/c(=N/C(=O)c2c(F)cccc2F)sc2cc(S(N)(=O)=O)ccc21]: the “Inhibition Rate ([Cpd.]=40 uM)” value was under 0.5.

In the case of `CC(=O)N1CCc2c(sc3c2c(=O)n(-c2ccccc2)c(=O)n3Cc2cc(C)ccc2C)C1` [E5, CC(=O)N1CCc2c(sc3c2c(=O)n(-c2ccccc2)c(=O)n3Cc2cc(C)ccc2C)C1], the “Inhibition Rate ([Cpd.]=40 uM)” value came out at 0.64.

On to `CC1CC(C)CN(C(=O)c2ccccc2NC(=O)N2CC(O)CC(F)(F)C2)C1` (stereo not shown) [D12, CC1CC(C)CN(C(=O)c2ccccc2NC(=O)N2CC(O)CC(F)(F)C2)C1], for which the “Inhibition Rate ([Cpd.]=40 uM)” value is given as under 0.5.

For the compound `COc1ccccc1-n1c(=O)c2c3c(sc2n(Cc2ccccc2)c1=O)CN(C(C)=O)CC3` [D17, COc1ccccc1-n1c(=O)c2c3c(sc2n(Cc2ccccc2)c1=O)CN(C(C)=O)CC3], the “Inhibition Rate ([Cpd.]=40 uM)” value was under 0.5.

For the compound `CC(=O)N1CCc2c(sc3c2c(=O)n(Cc2ccccc2)c(=O)n3Cc2cccc(C)c2)C1` [E13, CC(=O)N1CCc2c(sc3c2c(=O)n(Cc2ccccc2)c(=O)n3Cc2cccc(C)c2)C1], the “Inhibition Rate ([Cpd.]=40 uM)” value is under 0.5.

As for `C/C(=N\Nc1nc2c(c(=O)[nH]c(=O)n2C)n1Cc1cccc2ccccc12)c1ccc(O)cc1` [D1, C/C(=N\Nc1nc2c(c(=O)[nH]c(=O)n2C)n1Cc1cccc2ccccc12)c1ccc(O)cc1], the “Inhibition Rate ([Cpd.]=40 uM)” value stood at 1.49.

As for `O=C1/C(=C\NN(Cc2ccccc2)c2ccccc2)c2ccccc2C(=O)N1c1cccc(Cl)c1` [E4, O=C1C(=CNN(Cc2ccccc2)c2ccccc2)c2ccccc2C(=O)N1c1cccc(Cl)c1], the “Inhibition Rate ([Cpd.]=40 uM)” value is 0.65.

Turning to `CC(=O)N1CCc2c(sc3c2c(=O)n(-c2ccccc2C)c(=O)n3Cc2cc(C)ccc2C)C1` [E16, CC(=O)N1CCc2c(sc3c2c(=O)n(-c2ccccc2C)c(=O)n3Cc2cc(C)ccc2C)C1], the “Inhibition Rate ([Cpd.]=40 uM)” value is under 0.5.

In the case of `CCn1c(=O)n(CCC(=O)NC(Cc2ccccc2)c2nc3ccccc3[nH]2)c2ccccc21` (stereo not shown) [E2, CCn1c(=O)n(CCC(=O)NC(Cc2ccccc2)c2nc3ccccc3[nH]2)c2ccccc21], the “Inhibition Rate ([Cpd.]=40 uM)” value worked out at 0.67.

As to `COc1ccc(/N=C(/Nc2ccc(OC)cc2)c2cccc3ccccc23)cc1` [E10, COc1ccc(/N=C(/Nc2ccc(OC)cc2)c2cccc3ccccc23)cc1], the “Inhibition Rate ([Cpd.]=40 uM)” value was under 0.5.

As for `Cc1c(C(=O)N(C)Cc2ccccc2)sc2ncnc(N(C)c3ccccc3)c12` [D14, Cc1c(C(=O)N(C)Cc2ccccc2)sc2ncnc(N(C)c3ccccc3)c12], the “Inhibition Rate ([Cpd.]=40 uM)” value was under 0.5.

Regarding `O=C(CN1C(=O)NC2(CCCC2)C1=O)Nc1ccccc1C(=O)Nc1ccc2c(c1)OCO2` [D2, O=C(CN1C(=O)NC2(CCCC2)C1=O)Nc1ccccc1C(=O)Nc1ccc2c(c1)OCO2], the “Inhibition Rate ([Cpd.]=40 uM)” value amounted to 0.56.

As for `O=C(CSc1nc(-c2ccccc2F)nc2c1cnn2-c1ccccc1)NC1CC1` [E23, O=C(CSc1nc(-c2ccccc2F)nc2c1cnn2-c1ccccc1)NC1CC1], the “Inhibition Rate ([Cpd.]=40 uM)” value is on record as under 0.5.

With `Cn1nccc1C(=O)N1CCC[C@H](n2c(=O)n(Cc3ccccc3)c3cccnc32)C1` [D15, Cn1nccc1C(=O)N1CCC[C@H](n2c(=O)n(Cc3ccccc3)c3cccnc32)C1], the “Inhibition Rate ([Cpd.]=40 uM)” value is given as under 0.5.

With `O=C(c1cccc(O)c1)N1C[C@@H](c2cc(F)cc(F)c2)[C@@H]2[C@H]1C1CCN2CC1` [D24, O=C(c1cccc(O)c1)N1C[C@@H](c2cc(F)cc(F)c2)[C@@H]2[C@H]1C1CCN2CC1], the “Inhibition Rate ([Cpd.]=40 uM)” value was under 0.5.

For `COc1ccc(N2C(=O)C3C(Cc4c[nH]c5ccccc45)NC4(C(=O)Nc5ccccc54)C3C2=O)cc1` (stereo not shown) [E24, COc1ccc(N2C(=O)C3C(Cc4c[nH]c5ccccc45)NC4(C(=O)Nc5ccccc54)C3C2=O)cc1], the “Inhibition Rate ([Cpd.]=40 uM)” value is reported as under 0.5.

`CN(CCCN(Cc1cccn1Cc1ccc(Cl)cc1)C(=O)Nc1ccccc1)c1ccccc1` [E11, CN(CCCN(Cc1cccn1Cc1ccc(Cl)cc1)C(=O)Nc1ccccc1)c1ccccc1]: the “Inhibition Rate ([Cpd.]=40 uM)” value was under 0.5.

Turning to `COc1ccccc1-n1c(=O)c2c3c(sc2n(Cc2cccc(F)c2)c1=O)CN(C(C)=O)CC3` [D5, COc1ccccc1-n1c(=O)c2c3c(sc2n(Cc2cccc(F)c2)c1=O)CN(C(C)=O)CC3], the “Inhibition Rate ([Cpd.]=40 uM)” value is recorded as under 0.5.

As for `CCc1ccccc1N(CC(=O)Nc1ccccc1C(=O)NC(C)CC)S(=O)(=O)c1ccccc1` (stereo not shown) [E9, CCc1ccccc1N(CC(=O)Nc1ccccc1C(=O)NC(C)CC)S(=O)(=O)c1ccccc1], the “Inhibition Rate ([Cpd.]=40 uM)” value was determined as 0.54.

Take `O=C(c1cccnc1)N1CCc2c([nH]c3ccccc23)C1c1cccc(C(F)(F)F)c1` (stereo not shown) [E6, O=C(c1cccnc1)N1CCc2c([nH]c3ccccc23)C1c1cccc(C(F)(F)F)c1]: the “Inhibition Rate ([Cpd.]=40 uM)” value worked out at 0.55.

Regarding `O=C(NC(c1ccccc1)c1ccc2[nH]cnc2c1)C1=NN(C2CCS(=O)(=O)C2)C(=O)CC1` (stereo not shown) [D21, O=C(NC(c1ccccc1)c1ccc2[nH]cnc2c1)C1=NN(C2CCS(=O)(=O)C2)C(=O)CC1], the “Inhibition Rate ([Cpd.]=40 uM)” value was under 0.5.

Consider `Cc1ccccc1N1C(=O)C(=Cc2ccc(N3CCOCC3)cc2)c2ccccc2C1=O` [D9, Cc1ccccc1N1C(=O)C(=Cc2ccc(N3CCOCC3)cc2)c2ccccc2C1=O], for which the “Inhibition Rate ([Cpd.]=40 uM)” value is under 0.5.

Regarding `CC(=O)N1CCc2c(sc3c2c(=O)n(-c2ccc(F)cc2)c(=O)n3Cc2cc(C)ccc2C)C1` [E3, CC(=O)N1CCc2c(sc3c2c(=O)n(-c2ccc(F)cc2)c(=O)n3Cc2cc(C)ccc2C)C1], the “Inhibition Rate ([Cpd.]=40 uM)” value stood at 0.92.

For the origin of these results see paper PMC10444862, “Using macromolecular electron densities to improve the enrichment of active compounds in virtual screening” (Communications Chemistry, 2023).
